{"source": "paper PMC7876056", "about": "“Population Pharmacokinetic Analysis of Yimitasvir in Chinese Healthy Volunteers and Patients With Chronic Hepatitis C Virus Infection” (Frontiers in Pharmacology, 2021)", "key": {"[1]": {"conditions": "cited from earlier work"}, "[2]": {"parameters": "method as in Zhang et al., 2018", "conditions": "patients, ref Zhang et al., 2018, cited from earlier work"}, "CYP 2D6": {"system": "CYP 2D6", "conditions": "cited from earlier work"}, "P-glycoprotein (P-gp)": {"system": "P-glycoprotein (P-gp)", "conditions": "cited from earlier work"}, "[3]": {"assay": "Simulation of steady state exposure from the final population PK model (sensitive plot)", "assay_type": "in vivo, human", "conditions": "for AUC / Cmax: human, plasma, oral, 100 mg, 100 mg once daily for 12 weeks", "experimental": "Individual empirical Bayes estimates PK parameters from the final model were used to predict the steady state exposure of yimitasvir. The simulated dosing regimen was yimitasvir 100 mg once daily for 12 consecutive weeks. […] The steady state exposure was calculated using PK parameters with incorporation of the isolated effect from the covariate and with other unaffected PK parameters fixed to the typical value."}, "[4]": {"conditions": "dogs; cited from earlier work"}, "CYP 2B6": {"system": "CYP 2B6", "conditions": "cited from earlier work"}, "[5]": {"conditions": "humans; cited from earlier work"}, "CYP 2C19": {"system": "CYP 2C19", "conditions": "cited from earlier work"}, "[6]": {"assay": "Phase 1b study in patients with chronic HCV genotype 1 infection", "assay_type": "in vivo, human", "conditions": "evening after dinner for more than 4 h", "experimental": "Yimitasvir is a novel, oral HCV non-structural protein 5A (NS5A) inhibitor for the treatment of chronic HCV genotype 1 infection in combination with sofosbuvir. The pharmacokinetic profile of yimitasvir has been evaluated in healthy volunteers and patients with chronic HCV infection ([Zhang et al., 2018]; [Zhao et al., 2019]). Following fasted single oral dose of yimitasvir in healthy volunteers, yimitasvir was absorbed with a peak concentration (Cmax) 3.5–4.0 h post-dose. […] Yimitasvir was approximately 79.2–86.6% bound to human plasma proteins and the binding was independent of drug concentration over the range of 100–2000 ng ml^−1. No metabolism of yimitasvir was detected in vitro during incubations with hepatic microsomes from mice, rats, dogs, monkeys and humans. […] Steady state was achieved by day 5 following the once daily dosing regimen. […] Yimitasvir is a substrate and inhibitor of the drug transporter P-glycoprotein (P-gp).\nThe current population PK analysis of yimitasvir was performed using rich and sparse PK samples collected from six clinical pharmacology trials [4 phase 1 ([Zhao et al., 2019]), 1 phase 1b ([Zhang et al., 2018]) and 1 phase 2 studies] in Chinese healthy volunteers and HCV-infected patients. […]"}, "[7]": {"conditions": "monkeys; cited from earlier work"}, "CYP 1A2": {"system": "CYP 1A2", "conditions": "cited from earlier work"}, "[8]": {"conditions": "cited from earlier work", "remark": "listed apart in the source"}, "[9]": {"conditions": "high-fat meal, food effect study, ref Zhao et al., 2019"}, "[10]": {"conditions": "in the evening after dinner more than 4 h"}}, "note": "Like-named read-outs stand apart in the source and are kept apart here.", "data": [{"compound": "COC(=O)NC(C(=O)N1CCCC1c1ncc(-c2ccc(-c3ccc(-c4ccc5nc(C6CCCN6C(=O)C(NC(=O)OC)C(C)C)[nH]c5c4)c4c3C3CCC4C3)cc2)[nH]1)C(C)C", "note": "(stereo not shown) [yimitasvir]", "values": [{"measurement": "Decrease in AUC", "setting": "[1]; [9]", "result": "~50", "unit": "%"}, {"measurement": "Decrease in Cmax", "setting": "[1]; [9]", "result": "~63", "unit": "%"}, {"measurement": "Tmax", "setting": "[1]; high-fat meal, ref Zhao et al., 2019", "result": "5 to 12", "unit": "h"}, {"measurement": "Terminal half-life (t1/2)", "setting": "[1]; human, in vivo", "result": "13.4 to 19.7", "unit": "h"}, {"measurement": "Dose proportionality of exposure", "setting": "[1]; multiple ascending dose study, 100–400 mg once daily for seven days", "result": "less than dose-proportional"}, {"measurement": "Steady state achieved", "setting": "[1]; once daily dosing regimen", "result": "≤ 5", "unit": "days"}, {"measurement": "Accumulation ratio", "setting": "[1]; once daily dosing", "result": "1.32–1.34"}, {"measurement": "Major route of elimination", "setting": "[1]; ref Zhao et al., 2019", "result": "fecal excretion of parent drug"}, {"measurement": "Dose proportionality of AUC and Cmax", "setting": "[1]; single ascending dose study, healthy volunteers, ref Zhao et al., 2019", "result": "increased less than proportionally"}, {"measurement": "Recovered in urine as the parent drug", "setting": "[1]; through 7 days post-dose, ref Zhao et al., 2019", "result": "Less than 0.04%"}, {"measurement": "Dose proportionality of exposure", "setting": "[2]; 30 to 200 mg administered during the night (4 h after dinner)", "result": "near dose-proportional increase in exposure"}, {"measurement": "Median time to peak concentration (Tmax)", "setting": "[2]; evening after dinner for more than 4 h", "result": "4 to 12", "unit": "h"}, {"measurement": "Inhibition of CYP2D6", "setting": "CYP 2D6", "result": "does not inhibit"}, {"measurement": "P-gp inhibition", "setting": "P-glycoprotein (P-gp)", "result": "inhibitor"}, {"measurement": "P-gp substrate", "setting": "P-glycoprotein (P-gp)", "result": "substrate"}, {"measurement": "Decrease in Cmax,ss", "setting": "[3]; after a high-fat meal, model simulated", "result": 58.9, "unit": "%"}, {"measurement": "Magnitude of ALT on the steady-state exposure", "setting": "[3]; healthy volunteers with extreme ALT values (5th and 95th percentiles) relative to typical", "result": "~30", "unit": "%"}, {"measurement": "AUC", "setting": "[3]; empirical Bayes estimates, lower end of range, read-out: AUCss, 5th percentile of the population", "result": 3.26, "unit": "µg·h/mL"}, {"measurement": "AUC", "setting": "[3]; empirical Bayes estimates, upper end of range, read-out: AUCss, 95th percentile of the population", "result": 17.4, "unit": "µg·h/mL"}, {"measurement": "Cmax", "setting": "[3]; lower end of range, read-out: Cmax,ss, 5th percentile of the population", "result": 0.182, "unit": "µg/mL"}, {"measurement": "Cmax", "setting": "[3]; upper end of range, read-out: Cmax,ss, 95th percentile of the population", "result": 1.27, "unit": "µg/mL"}, {"measurement": "Decrease in AUCss", "setting": "[3]; [10]", "result": 28.9, "unit": "%"}, {"measurement": "Decrease in Cmax,ss", "setting": "[3]; [10]", "result": 46.1, "unit": "%"}, {"measurement": "Decrease in Ctrough,ss", "setting": "[3]; [10]", "result": 10.0, "unit": "%"}, {"measurement": "Steady state exposures (AUCss, Ctrough,ss, Cmax,ss) higher in female than male subjects", "setting": "[3]; in vivo", "result": "15.1–54.0%"}, {"measurement": "AUC", "setting": "[3]; male, typical subject: male, healthy volunteer, fasted 10 h, ALT=31.6 IU l^-1, read-out: AUCss, base", "result": 7.25, "unit": "µg·h/mL"}, {"measurement": "Cmax", "setting": "[3]; male, typical subject: male, healthy volunteer, fasted 10 h, ALT=31.6 IU l^-1, read-out: Cmax,ss, base", "result": 0.54, "unit": "µg/mL"}, {"measurement": "Difference in exposures between patients and healthy volunteers", "setting": "[3]; steady state", "result": "no difference in exposures"}, {"measurement": "Decrease in Ctrough,ss", "setting": "[3]; with a high-fat meal", "result": 3.52, "unit": "%"}, {"measurement": "Metabolism in hepatic microsomes", "setting": "[4]", "result": "No metabolism"}, {"measurement": "Inhibition of CYP2B6", "setting": "CYP 2B6", "result": "does not inhibit"}, {"measurement": "Metabolism in hepatic microsomes", "setting": "[5]", "result": "No metabolism"}, {"measurement": "Inhibition of CYP2C19", "setting": "CYP 2C19", "result": "does not inhibit"}, {"measurement": "AUC decrease compared to phase 1 SAD trial", "setting": "[6]", "result": 40, "unit": "%"}, {"measurement": "Metabolism in hepatic microsomes", "setting": "[7]", "result": "No metabolism"}, {"measurement": "Inhibition of CYP1A2", "setting": "CYP 1A2", "result": "does not inhibit"}, {"measurement": "Solubility profile", "setting": "[8]", "result": "pH-dependent solubility profile"}]}]}
